The values that follow come from patent EP0207193A2, “Synergetic combination of flupirtin and 4-acetamido-phenol” (Degussa Aktiengesellschaft, priority 1985, dated 1987).

Read-outs that look alike come from different tables or passages of the source.

The test system of this test is Albino-Ratte. The test can be described thus: Randall-Selitto test (analgesic effect, determination of synergism). It counts as in vivo. The conditions noted are these: per os; for Steigerung der analgetischen Wirksamkeit um den Faktor: ED50 alone versus ED50 in the combination, rat; for ED50: Rattus norvegicus, po. From the text: Die erfindungsgemäße Komtination zeigt beispielsweise im Randall-Selitto-Test einen Synergismus der analgetischen Wirkung, die gegenüber der Analgesie des reinen Flupirtin (Das Fiupirt^in wird stets als Maleat, Gluconat oder Hydrochlorid untersucht.) und dem reinen 4-Acetamido-phenol überadditiv gesteigert ist.
Die Wirkung der erfindungsgemäßen Kombination geht beispielsweise aus folgenden Versuchen hervor: Diese Untersuchungen erfolgten im Randall-Selitto-Test an der Albino-Ratte. Hierbei wird sowohl die Flupirtin-Dosis (Hydrochlorid) konstant gehalten, als auch bei konstanter Dosis des 4-Acetamido-phenols die Flupirtin-. Dosis geändert und jeweils im ersten Fall die ED50 der analgetischen Wirkung des 4-Acetamido-phenols und im zweiten Fall die analgetische Hauptwirkung des Flupirtins in der Kombination bestimmt (Methode der Bestimmung des Synergismus nach Forth, Henschler und Rummel, Lehrbuch Pharmakologie und Toxikologie, Ausgabe 1980, Seite 65; Wissenschaftsverlag, Bibliographisches Institut Mannheim, Wien und Zürich).
So wird beispielsweise in dem vorstehend angegebenen Test die analgetisch wirksame ED50 des Flupirtins von 30,94 mg/kg per os auf 1,65 mg/kg und die analgetisch wirksame ED50 des 4-Acetamido-phenols (Paracetamol) von 71,47 mg/kg auf 0,6 mg/kg per os gesenkt. In diesem Test erfolgt also eine Steigerung der analgetischen Wirksamkeit des Flupirtins um den Faktor 18 und hinsichtlich der analgetischen Wirkung des Paracetamols um den Faktor 119.

As usually defined, the ED50 is the dose that gives a 50% effect, or the effect in half of the subjects.

On to `CC(=O)Nc1ccc(O)cc1` [4-Acetamido-phenol], for which the “Steigerung der analgetischen Wirksamkeit um den Faktor” value was 119. Also, the ED50 (4-Acetamido-phenol alone, read-out: analgetisch wirksame ED50 des 4-Acetamido-phenols (Paracetamol)) worked out at 71.5 mg/kg. Further, where the note is “4-Acetamido-phenol in combination with a constant dose of Flupirtin (hydrochloride), read-out: analgetisch wirksame ED50 des 4-Acetamido-phenols (Paracetamol)”, the ED50 turned out to be 0.6 mg/kg.

`CCOC(=O)Nc1ccc(NCc2ccc(F)cc2)nc1N` [Flupirtin, 2-Amino-3-carbethoxyamino-6-(4-fluor-be-nzylamino)-pyridin]: the “Steigerung der analgetischen Wirksamkeit um den Faktor” value amounted to 18. Further, for the setting “Flupirtin (hydrochloride) in combination with a constant dose of 4-Acetamido-phenol, read-out: analgetisch wirksame ED50 des Flupirtins”, the ED50 stood at 1.65 mg/kg. Under “Flupirtin alone (hydrochloride), read-out: analgetisch wirksame ED50 des Flupirtins”, the ED50 worked out at 30.9 mg/kg.
